Consider 7 compounds from patent US7250410B2, “Cyclic nucleotide phosphodiesterase inhibitors, preparation and uses thereof” (Via Pharmaceuticals, Inc., priority 2001, dated 2007).

The target in one experiment is T1, PDE2 (Bos taurus, UniProt P14099).
T1 construct: PDE2 was prepared from bovine endothelial cells by the same methods; endogenous in cells; host or cells: bovine vascular endothelial cells, DEAE-Sephacel fraction
T1 sequence (P14099 1-921): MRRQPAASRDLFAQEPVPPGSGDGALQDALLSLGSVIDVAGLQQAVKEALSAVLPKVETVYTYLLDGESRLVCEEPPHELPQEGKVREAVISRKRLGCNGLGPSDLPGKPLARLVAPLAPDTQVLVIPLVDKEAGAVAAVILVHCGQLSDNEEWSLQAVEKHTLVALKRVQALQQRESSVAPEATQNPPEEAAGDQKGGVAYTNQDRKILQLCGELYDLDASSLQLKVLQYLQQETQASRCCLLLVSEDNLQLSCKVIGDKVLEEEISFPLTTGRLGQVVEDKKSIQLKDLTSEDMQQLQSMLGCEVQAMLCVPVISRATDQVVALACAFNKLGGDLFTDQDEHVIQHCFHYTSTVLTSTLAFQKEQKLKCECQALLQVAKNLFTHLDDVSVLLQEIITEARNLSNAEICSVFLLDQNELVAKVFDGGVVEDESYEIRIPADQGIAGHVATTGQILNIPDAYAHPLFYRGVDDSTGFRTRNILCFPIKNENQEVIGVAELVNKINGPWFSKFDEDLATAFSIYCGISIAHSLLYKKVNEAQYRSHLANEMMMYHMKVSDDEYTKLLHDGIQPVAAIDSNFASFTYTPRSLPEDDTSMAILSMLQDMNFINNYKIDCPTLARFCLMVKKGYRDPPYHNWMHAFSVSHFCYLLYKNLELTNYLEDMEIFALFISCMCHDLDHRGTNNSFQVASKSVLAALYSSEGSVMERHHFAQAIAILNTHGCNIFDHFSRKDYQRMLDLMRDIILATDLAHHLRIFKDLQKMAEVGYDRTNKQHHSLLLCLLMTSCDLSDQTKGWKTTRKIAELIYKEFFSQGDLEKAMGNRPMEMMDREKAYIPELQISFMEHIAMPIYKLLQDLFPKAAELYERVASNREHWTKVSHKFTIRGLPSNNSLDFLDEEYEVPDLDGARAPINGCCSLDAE
Nature of the experiment: Selectivity: inhibition of PDE2, radioenzymatic phosphodiesterase assay. The experiment is classed as biochemical, bovine. To be noted: Table 4 Selectivity; for inhibition at 10 µM: compound at 10 μM, read-out: PDE2 percentage inhibition at 10 μM. How it is done: (§1) A 3 g segment of bovine aortic media cut into pieces with scissors was homogenized with an ultra-turrax then a potter glass/glass homogenizer in 7 volumes by weight of buffer A containing a protease inhibitor cocktail (20 mM Tris-HCl, 0.25 M saccharose, 2 mM magnesium acetate, 1 mM dithiothreitol, 5 mM EGTA, 2000 U/ml aprotinin, 10 mg/l leupeptin and 10 mg/l soya trypsic inhibitor). The homogenizate was centrifuged at 105,000 g for 1 hour. The supernatant was loaded on a DEAE-Sephacel column (15×1.6 cm) pre-equilibrated with buffer B (buffer A without the saccharose, EGTA and protease inhibitors). The column was washed until there was no detectable absorption at 280 nm, then eluted with a linear gradient of NaCl (0–0.5 M) in buffer B. 3-ml fractions were collected and enzyme activity was determined under the conditions described hereinafter to localize the different enzymes PDE1, PDE3, PDE4 and PDE5, which were aliquoted and frozen at −80° C. (Lugnier et al., Biochem. Phamacol., 35 (1986) 1746–1751). PDE2 was prepared from bovine endothelial cells by the same methods (Lugnier and Schini, Biochem. Pharmacol. 1990, 39; 75–84).
(§2) Cyclic nucleotide phosphodiesterase activity was determined by a radioenzymatic method using tritium-labelled cyclic GMP or AMP (1 μM) as substrate (Lugnier et al., 1986). ^3H-labelled adenosine or guanosine monophosphate formed by hydrolysis of the radiolabelled cyclic nucleotide was then converted to ^3H-labelled adenosine or guanosine in a second reaction with […] in excess. The nucleoside formed was separated from the nucleotides by anion exchange chromatography. Nucleoside radioactivity was determined by liquid scintillation counting. Enzymatic incubations were carried out under conditions allowing no more than 15% hydrolysis of the substrate; each point was performed in duplicate.
(§3) The activity of the compounds was evaluated on other phosphodiesterase isoforms, particularly basal state or calmodulin-activated PDE1 from vascular smooth muscle, basal state or cyclic GMP-activated PDE2 from vascular endothelial cells, PDE3 and PDE5 from vascular smooth muscle.
(§4) The results obtained are presented in Table 4 hereinafter and are expressed as the percentage inhibition of enzymatic activity produced by […] of the tested compound.

For the next experiment, the system named is PDE1. Nature of the experiment: Selectivity: inhibition of PDE1, radioenzymatic phosphodiesterase assay. The experiment is classed as biochemical, bovine. Details: PDE1 percentage inhibition at 10 μM: unit: %. To be noted: Table 4 Selectivity; for PDE1 percentage inhibition at 10 μM: compound at 10 μM. The method, then: as §1, §2, §3, §4
For another experiment, the target named is PDE4. Nature of the experiment: Inhibition of PDE4, radioenzymatic phosphodiesterase assay. Format: biochemical, bovine. In a few lines:
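PDE4 partially purified from bovine aortic media by 105,000 g centrifugation and anion-exchange chromatography with an NaCl gradient. Activity measured radioenzymatically: product nucleoside separated from nucleotides by anion exchange and counted by liquid scintillation.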

Another experiment has as its target T2, PDE3 (Bos taurus, UniProt A0A3Q1M1E8).
T2 sequence (A0A3Q1M1E8 1-1126): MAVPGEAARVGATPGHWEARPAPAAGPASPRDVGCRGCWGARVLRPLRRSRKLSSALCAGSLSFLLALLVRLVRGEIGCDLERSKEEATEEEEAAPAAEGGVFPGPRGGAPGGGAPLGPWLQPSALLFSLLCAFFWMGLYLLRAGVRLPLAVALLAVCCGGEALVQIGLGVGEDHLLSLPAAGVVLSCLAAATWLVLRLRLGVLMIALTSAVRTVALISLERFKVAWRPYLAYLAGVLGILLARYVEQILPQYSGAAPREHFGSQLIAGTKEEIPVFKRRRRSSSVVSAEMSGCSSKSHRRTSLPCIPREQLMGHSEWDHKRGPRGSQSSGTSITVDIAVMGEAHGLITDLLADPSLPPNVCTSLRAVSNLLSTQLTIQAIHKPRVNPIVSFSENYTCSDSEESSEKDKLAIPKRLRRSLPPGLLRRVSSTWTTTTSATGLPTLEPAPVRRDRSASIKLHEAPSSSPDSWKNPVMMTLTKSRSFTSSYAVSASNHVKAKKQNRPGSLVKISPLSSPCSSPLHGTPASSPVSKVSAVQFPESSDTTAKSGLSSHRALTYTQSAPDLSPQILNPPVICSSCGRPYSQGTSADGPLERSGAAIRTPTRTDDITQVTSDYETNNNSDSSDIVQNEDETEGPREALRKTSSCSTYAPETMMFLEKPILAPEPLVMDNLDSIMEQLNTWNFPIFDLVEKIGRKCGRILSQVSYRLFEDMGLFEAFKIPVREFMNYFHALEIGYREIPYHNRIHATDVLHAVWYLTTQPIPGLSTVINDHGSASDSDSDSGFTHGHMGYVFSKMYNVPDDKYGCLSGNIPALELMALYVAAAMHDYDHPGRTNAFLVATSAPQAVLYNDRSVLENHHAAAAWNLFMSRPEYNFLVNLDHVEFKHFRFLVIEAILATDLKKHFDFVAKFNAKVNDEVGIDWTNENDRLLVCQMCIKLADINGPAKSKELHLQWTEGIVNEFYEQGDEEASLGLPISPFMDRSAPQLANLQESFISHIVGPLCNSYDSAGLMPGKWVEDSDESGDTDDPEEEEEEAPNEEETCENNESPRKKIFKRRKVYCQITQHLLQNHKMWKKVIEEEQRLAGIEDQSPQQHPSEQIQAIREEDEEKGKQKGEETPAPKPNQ
Description: Selectivity: inhibition of PDE3, radioenzymatic phosphodiesterase assay. To be noted: read-out: PDE3 percentage inhibition at 10 μM. The experiment is classed as biochemical, bovine. The method, then: as §1, §2, §3, §4

The target in a further experiment is T3, PDE5 (Bos taurus, UniProt Q28156).
T3 construct: localize the different enzymes PDE1, PDE3, PDE4 and PDE5, which were aliquoted and frozen; from tissue; host or cells: bovine aortic media (vascular smooth muscle), DEAE-Sephacel fraction
Description: Selectivity: inhibition of PDE5, radioenzymatic phosphodiesterase assay. The experiment is classed as biochemical, bovine. To be noted: Table 4 Selectivity. The method, then:
as §1, §2, §3, §4

A further experiment has as its system IL1β, IL6 and IL8. Nature of the experiment: IL1β, IL6 and IL8 secretion by LPS-activated mononuclear cells from venous blood. The experiment is classed as cell-based, human. To be noted: compound at 1 μM.
A further experiment deals with TNFα. Nature of the experiment: TNFα production by LPS-activated mononuclear cells from venous blood (ELISA). The experiment is classed as cell-based. To be noted: Homo sapiens. How it is done: Compounds according to the invention were assessed for anti-inflammatory properties on mononuclear cells from venous blood of healthy donors (n=4), by a protocol approved by the Alsace No. 1 Ethics Committee. More specifically, the cells were incubated for 24 hours in 24-well plates in the presence of the test compound, after activation by Salmonella Abortis Equi lipopolysaccharide (LPS) (5 pg/ml) (cf. De Groote et al., Cytokine 4, 1992, 239). After incubation, TNFα concentrations were determined in the culture supernatant by an ELISA method (Antibody Solutions, Half Moon Bay, Calif., USA).
On the technique in general: In an ELISA, binding on a coated surface is turned into a signal by an enzyme label.

Where [1] appears, read: Table 1, formula (III), 1 μM cyclic AMP.
[2] abbreviates: Table 3, formula (II), 1 μM cyclic AMP.
[3] abbreviates: Table 2, formula (XXII), 1 μM cyclic AMP.

The IC50 is the concentration at which inhibition is half-maximal. In general, inhibition refers to the change of the read-out against control, counted positive when it falls.

Each structure is given as a SMILES string. Several values for one entry are separate records, joined by “and”; a condition that tells them apart may be missing. Identical values can stand only once.

For the compound `COc1cc2c(cc1OC)C(c1ccc(-c3ccco3)cc1)=NN(C)C(=O)C2` [IIIav, 1-[4-(2-furyl)phenyl]-7,8-dimethoxy-3-methyl-3,5-dihydro-4H-2,3-benzodiazepin-4-one], the IC50 against PDE2 was 19000 nM; against PDE4 (setting [1]), 900 nM; against PDE4 (Table 4 Selectivity), 900 nM; against PDE5, 40000 nM. Moreover, in the experiment on PDE1, the “PDE1 percentage inhibition at 10 μM” value worked out at 49%. Besides, the inhibition at 10 µM on PDE3 amounted to 92%.
Take `CCOc1cc2c(cc1OCC)N(CC)C(=O)CN=C2c1ccccc1` [IIbg, 7,8-diethoxy-1-ethyl-5-phenyl-1,3-dihydro-2H-1,4-benzodiazepin-2-one]: the inhibition at 10 µM on PDE2 came out at 20%; at PDE3, 40%. In the experiment with PDE1, the “PDE1 percentage inhibition at 10 μM” value worked out at 47%. Further, the IC50 against PDE4 (setting [2]) is 900 nM and 1600 nM; against PDE4 (Table 4 Selectivity), 900 nM.
`CCOc1cc2c(cc1OC)C(c1ccccc1)=NCC(=O)N2` [XXIIam, 8-ethoxy-7-methoxy-5-phenyl-1,3-dihydro-2H-1,4-benzodiazepin-2-one]: the inhibition at 10 µM stood at 36% at PDE2; 36% on PDE3; 35% at PDE5 (compound at 10 μM, read-out: PDE5 percentage inhibition at 10 μM). For the same compound, the “PDE1 percentage inhibition at 10 μM” value in the experiment with PDE1 is listed as 29%. Moreover, the IC50 against PDE4 (setting [3]) and on PDE4 (Table 4 Selectivity) was 700 nM throughout.
Consider `CCOc1cc2c(cc1OCC)C(CC)C(=O)N(C)N=C2c1cc2ccccc2s1` (stereo not drawn) [IIIbb, 1-(2-benzo[b]thienyl)-7,8-diethoxy-5-ethyl-3-methyl-3,5-dihydro-4H-2,3-benzodiazepin-4-one], for which, on PDE2, the inhibition at 10 µM was 25%. The IC50 at PDE1 was 14000 nM; on PDE4 (setting [1]), 87 nM; against PDE4 (Table 4 Selectivity), 87 nM; against PDE5 it was 5700 nM.
Take `COc1cc2c(cc1OC)C(c1cc3ccccc3s1)=NN(C)C(=O)C2` [IIIab, 1-(2-benzo[b]thienyl)-7,8-dimethoxy-3-methyl-3,5-dihydro-4H-2,3-benzodiazepin-4-one]: the IC50 on PDE2 came out at 16000 nM; on PDE1 it was 3810 nM; on PDE4 (setting [1]), 300 nM; against PDE4 (Table 4 Selectivity) it was 300 nM; against PDE5, 4300 nM. Moreover, the “IL1β, IL6 and IL8 secretion levels” value in the experiment on IL1β, IL6 and IL8 is listed as “not at all altered”. In the experiment with TNFα (compound at 1 μM, 24 hours, LPS 5 pg/ml, read-out: inhibition of TNFα production), the inhibition at 1 µM is 100%.
In the case of `CCOc1cc2c(cc1OCC)C(c1ccccc1)=NC(C)C(=O)N2` (stereo not drawn) [XXIIai, 7,8-diethoxy-3-methyl-5-phenyl-1,3-dihydro-2H-1,4-benzodiazepin-2-one], the figures for the inhibition at 10 µM at PDE2 and at PDE3 were 6% and 55%, respectively. The “PDE1 percentage inhibition at 10 μM” value in the experiment with PDE1 is reported as 55%. Also, the IC50 on PDE4 (setting [3]) and against PDE4 (Table 4 Selectivity) was 1700 nM throughout.
Take `CCOc1cc2c(cc1OC)C(c1ccccc1)=NC(Cc1cccc(C(N)=O)c1)C(=O)N2C` (stereo not drawn) [IIdh, 3-[(8-ethoxy-7-methoxy-1-methyl-2-oxo-5-phenyl-2,3-dihydro-1H-1,4-benzodiazepin-3-yl)methyl]benzamide]: the IC50 is 100 to 1000 nM with TNFα (read-out: anti-TNFα activity IC50) and 520 nM against PDE4 (setting [2]).
